What all share (type): functional
In experiment [1] the test system is Rattus norvegicus. The experiment can be described thus: Anti-stress activity in Sprague-Dawley rat assessed as change in acute stress-induced plasma corticosterone level at 40 mg/kg, po qd for 3 days prior to acute stress induction measured after 150 mins by HPLC/UV analysis (reference value: 511.2 +/- 23.2 ng/ml).
Experiment [2] relates to Rattus norvegicus. The experiment can be described thus: Anti-stress activity in Sprague-Dawley rat assessed as change in acute stress-induced plasma creatine kinase level at 40 mg/kg, po qd for 3 days prior to acute stress induction measured after 150 mins (reference value: 1018 +/- 31.43 mg/dl).
The subject of experiment [3] is Rattus norvegicus. Put plainly: Anti-stress activity in Sprague-Dawley rat assessed as change in acute stress-induced adrenal gland weight at 40 mg/kg, po qd for 3 days prior to acute stress induction measured after 150 mins (reference value: 10.2 +/- 0.84 mg/kg).
The subject of experiment [4] is Rattus norvegicus. The experiment can be described thus: Anti-stress activity in Sprague-Dawley rat assessed as change in acute stress-induced plasma glucose level at 40 mg/kg, po qd for 3 days prior to acute stress induction measured after 150 mins (reference value: 154.7 +/- 4.38 mg/dl).

Take `C[C@@H]1O[C@@H](OC[C@H]2O[C@@H](Oc3ccc(-c4oc5cc(O)cc(O)c5c(=O)c4O)cc3)[C@H](O)[C@@H](O)[C@@H]2O)[C@H](O)[C@H](O)[C@H]1O`: the Activity with Rattus norvegicus [1] worked out at 239.2 ng/mL; in the experiment with Rattus norvegicus [2] it was 521.4 mg/dL; with Rattus norvegicus [3], 8.47 mg/kg; in the experiment with Rattus norvegicus [4], 105.13 mg/dL.
Consider `C[C@@H]1O[C@@H](OC[C@H]2O[C@@H](Oc3ccc(-c4oc5cc(O)cc(O)c5c(=O)c4O)cc3)[C@H](O)[C@@H](O)[C@@H]2O)[C@H](O[C@@H]2O[C@H](CO)[C@@H](O)[C@H](O)[C@H]2O)[C@H](O)[C@H]1O` [EVOLVOSIDE C], for which the Activity with Rattus norvegicus [1] worked out at 233.3 ng/mL; with Rattus norvegicus [2] it was 385.3 mg/dL; with Rattus norvegicus [3], 7.11 mg/kg; in the experiment on Rattus norvegicus [4], 80.17 mg/dL.
As to `O=c1cc(-c2ccc(O)cc2)oc2c([C@@H]3O[C@H](CO)[C@@H](O)[C@H](O)[C@H]3O)c(O)cc(O)c12`, the Activity in the experiment with Rattus norvegicus [1] is 439 ng/mL; in the experiment with Rattus norvegicus [2] it was 822 mg/dL; in the experiment with Rattus norvegicus [3] it was 9.78 mg/kg; with Rattus norvegicus [4], 92.1 mg/dL.
Regarding `COc1cc(OC)c2c(=O)c(O)c(-c3ccc(O[C@@H]4O[C@H](CO[C@@H]5O[C@@H](C)[C@H](O)[C@@H](O)[C@H]5O[C@@H]5O[C@H](CO)[C@@H](O)[C@H](O)[C@H]5O)[C@@H](O)[C@H](O)[C@H]4O)cc3)oc2c1` [EVOLVOSIDE E], the Activity was determined as 252.6 ng/mL with Rattus norvegicus [1] and 413.7 mg/dL in the experiment with Rattus norvegicus [2].
For `COc1cc(O)c2c(=O)c(O)c(-c3ccc(O[C@@H]4O[C@H](CO[C@@H]5O[C@@H](C)[C@H](O)[C@@H](O)[C@H]5O[C@@H]5O[C@H](CO)[C@@H](O)[C@H](O)[C@H]5O)[C@@H](O)[C@H](O)[C@H]4O)cc3)oc2c1` [EVOLVOSIDE D], the Activity with Rattus norvegicus [1] was 241.7 ng/mL; with Rattus norvegicus [2], 405.4 mg/dL; in the experiment with Rattus norvegicus [3] it was 8.23 mg/kg; with Rattus norvegicus [4] it was 95.13 mg/dL.
For `O=c1c(O)c(-c2ccc(O[C@@H]3O[C@H](CO)[C@@H](O)[C@H](O)[C@H]3O[C@@H]3O[C@H](CO)[C@@H](O)[C@H](O)[C@H]3O)cc2)oc2cc(O)cc(O)c12`, the Activity amounted to 458.2 ng/mL in the experiment on Rattus norvegicus [1], 1078 mg/dL in the experiment with Rattus norvegicus [2], 10.91 mg/kg in the experiment with Rattus norvegicus [3] and 113.1 mg/dL in the experiment on Rattus norvegicus [4].

For the origin of these results see ChEMBL document CHEMBL2331217, “Evolvosides C–E, flavonol-4'-O-triglycosides from evolvulus alsinoides and their anti-stress activity [corrected]” (2013).
